Data published in patent US20250144067A1, “PERSONALIZED STARVATION THERAPY FOR CANCER” (Faeth Therapeutics, Inc., priority 2021, published 2025).
Structures can show the parent of a compound that is named as a salt. Where two headings read alike, the source gives them in different places.

How the values were obtained:
[1] = test system: NCI-H292 lung cancer cells; test: FDA drug screening, complete media vs cholesterol-free media without statin (TABLE 1); format: cell-based, human
[2] = test system: NCI-H292 lung cancer cells; test: FDA drug screening, complete media vs cholesterol-free media with simvastatin (TABLE 2); format: cell-based, human
[3] = Complete minus Cholesterol-free, greater than 0 enhanced anti-cancer activity, about 0 neutral, below 0 antagonists
[4] = NCI-H292 cells in cholesterol-free media without statin
[5] = NCI-H292 cells in complete media
[6] = NCI-H292 cells, FDA drug library screen, cholesterol-free media with simvastatin 0.04 μM
[7] = NCI-H292 cells, FDA drug library screen, complete media
[8] = complete media vs cholesterol-free media + simvastatin (0.04 μM), >0 enhanced anti-cancer activity, about 0 neutral, <0 antagonist
[9] = Complete minus Cholesterol-free, >0 enhanced anti-cancer activity, about 0 neutral, <0 antagonist
[10] = NCI-H292 cells, cholesterol-free media without statin
[11] = NCI-H292 cells, cholesterol-free media with simvastatin 0.04 μM, FDA drug library screen (TABLE 2)
[12] = NCI-H292 cells, complete media, FDA drug library screen (TABLE 2)
[13] = complete media minus cholesterol-free media + simvastatin (0.04 μM), >0 enhanced anti-cancer activity, about 0 neutral, <0 antagonist
[14] = complete vs cholesterol-free media, greater than 0 enhanced anti-cancer activity, about 0 neutral, below 0 antagonists
[15] = NCI-H292 cells, drug in cholesterol-free media with simvastatin 0.04 μM
[16] = NCI-H292 cells, drug in complete media
[17] = Complete minus Cholesterol-free, […]
[18] = NCI-H292 cells, cholesterol-free media without statin, FDA drug library screen
[19] = NCI-H292 cells, complete media, FDA drug library screen
[20] = complete media vs cholesterol-free media + simvastatin (0.04 μM), […]
[21] = NCI-H292 cells, FDA library drug in cholesterol-free media with simvastatin 0.04 μM
[22] = NCI-H292 cells, FDA library drug in complete media
[23] = complete media minus cholesterol-free media + simvastatin, >0 enhanced anti-cancer activity, about 0 neutral, <0 antagonist

## O=C(OCC(O)CO)c1ccccc1Nc1ccnc2cc(Cl)ccc12 (stereo not drawn) [Glafenine]
[1]
  Cholesterol-free: 1.288
  Difference: −0.12
[2]
  Cholesterol-free media + simvastatin (0.04 μM): 0.9477
  Complete Media: 1.068
  Difference: 0.12

## C[Se]CC[C@H](N)C(=O)O [L-SelenoMethionine]
[1]; [3]
  Difference: −0.92
[1]; [4]
  Cholesterol-free: 2.252
[1]; [5]
  Complete: 1.327
[2]; [6]
  Cholesterol-free media + simvastatin (0.04 μM): 1.886
[2]; [7]
  Complete Media: 1.795
[2]; [8]
  Difference: −0.09

## C[C@]1(COc2ccc(N3CCC(Oc4ccc(OC(F)(F)F)cc4)CC3)cc2)Cn2cc([N+](=O)[O-])nc2O1 [Delamanid]
[1]; [9]
  Difference: −0.22
[1]; [10]
  Cholesterol-free: 1.106
[1]; NCI-H292 cells, complete media
  Complete: 0.8827
[2]; [11]
  Cholesterol-free media + simvastatin (0.04 μM): 1.352
[2]; [12]
  Complete Media: 1.345
[2]; [13]
  Difference: −0.01

## (+)-Catechin hydrate
[1]; [9]
  Difference: 0.05
[2]; [13]
  Difference: −0.05

## C[C@]12CCC(=O)C=C1CC[C@@H]1[C@@H]2[C@@H](O)C[C@@]2(C)[C@H]1CC[C@]2(O)C(=O)COC(=O)CCC1CCCC1 [Hydrocortisone cypionate]
[1]
  Cholesterol-free: 1.099
  Complete: 0.6914
  Difference: −0.41
[2]
  Cholesterol-free media + simvastatin (0.04 μM): 0.7228
  Complete Media: 0.7215
  Difference: 0.00

## CCOC(=O)C(C)(C)Oc1ccc(Cl)cc1 [Clofibrate]
[1]; Complete minus Cholesterol-free, greater than 0 enhanced anti-cancer activity, about 0 neutral, below 0 antagonist
  Difference: −0.12
[1]; NCI-H292 cells, FDA drug library screen, cholesterol-free media without statin
  Cholesterol-free: 1.138
[1]; [7]
  Complete: 1.018
[2]; [6]
  Cholesterol-free media + simvastatin (0.04 μM): 1.786
[2]; [7]
  Complete Media: 1.654
[2]; [8]
  Difference: −0.13

## CNCCc1ccccn1 [Betahistine (dihydrochloride)]
[1]; [10]
  Cholesterol-free: 1.528
[1]; NCI-H292 cells, complete media
  Complete: 1.139
[1]; [14]
  Difference: −0.39
[2]; [15]
  Cholesterol-free media + simvastatin (0.04 μM): 1.02
[2]; [16]
  Complete Media: 0.8007
[2]; [8]
  Difference: −0.22

## Inulin
[1]; [17]
  Difference: −0.02
[1]; [18]
  Cholesterol-free: 0.9221
[1]; [19]
  Complete: 0.9055
[2]; [15]
  Cholesterol-free media + simvastatin (0.04 μM): 1.179
[2]; [16]
  Complete Media: 0.9318
[2]; [20]
  Difference: −0.25

## CC1CCc2c(N3CCC(O)CC3)c(F)cc3c(=O)c(C(=O)O)cn1c23 (stereo not drawn) [Nadifloxacin]
[1]; [9]
  Difference: −0.03
[1]; [18]
  Cholesterol-free: 0.9891
[1]; [19]
  Complete: 0.9558
[2]; [21]
  Cholesterol-free media + simvastatin (0.04 μM): 1.859
[2]; [22]
  Complete Media: 1.054
[2]; [8]
  Difference: −0.80

## CC(C)/N=c1\cc2n(-c3ccc(Cl)cc3)c3ccccc3nc-2cc1Nc1ccc(Cl)cc1 [Clofazimine]
[1]; [10]
  Cholesterol-free: 0.8398
[1]; NCI-H292 cells, complete media
  Complete: 0.4066
[1]; [14]
  Difference: −0.43
[2]; [11]
  Cholesterol-free media + simvastatin (0.04 μM): 0.9946
[2]; [12]
  Complete Media: 0.9365
[2]; [13]
  Difference: −0.06

## NC(=O)OC[C@H](N)Cc1ccccc1 [Solriamfetol]
[1]; [17]
  Difference: −0.04
[1]; [18]
  Cholesterol-free: 1.006
[1]; [19]
  Complete: 0.9654
[2]; [21]
  Cholesterol-free media + simvastatin (0.04 μM): 1.23
[2]; [22]
  Complete Media: 0.8852
[2]; [20]
  Difference: −0.34

## CCC(=O)O[C@@H](O[P@](=O)(CCCCc1ccccc1)CC(=O)N1C[C@H](C2CCCCC2)C[C@H]1C(=O)O)C(C)C [Fosinopril (sodium)]
[1]; [3]
  Difference: −0.52
[1]; [4]
  Cholesterol-free: 1.831
[1]; [5]
  Complete: 1.313
[2]; [6]
  Cholesterol-free media + simvastatin (0.04 μM): 0.91
[2]; [7]
  Complete Media: 1.199
[2]; [23]
  Difference: 0.29

## CCOC(=O)[N-]c1cn(N2CCOCC2)n[o+]1 [Molsidomine]
[1]; [3]
  Difference: −0.60
[1]; [4]
  Cholesterol-free: 1.343
[1]; [5]
  Complete: 0.7419
[2]; [6]
  Cholesterol-free media + simvastatin (0.04 μM): 1.15
[2]; [7]
  Complete Media: 1.6
[2]; [23]
  Difference: 0.45

## C(=C\c1ccccc1)/CN1CCN(C(c2ccccc2)c2ccccc2)CC1 [Cinnarizine]
[1]; [10]
  Cholesterol-free: 1.344
[1]; NCI-H292 cells, complete media
  Complete: 0.9213
[1]; [14]
  Difference: −0.42
[2]; NCI-H292 cells, cholesterol-free media with simvastatin 0.04 μM, cell growth value in FDA drug screen
  Cholesterol-free media + simvastatin (0.04 μM): 1.061
[2]; [23]
  Difference: 0.11
